Measured values reported in patent publication US20120101163A1, “COMPOSITION FOR INHIBITING CANCER METASTASIS” (TAIPEI MEDICAL UNIVERSITY, priority 2010, published 2012).

Experiments:
[1] = test system: matrix metalloproteinase-9; assay: Gelatin gel zymography of PMA-induced HT 1080 cells, MMP-9 activity; assay type: cell-based, Human; details: HT 1080 cells, 0.4, 0.8, 1.2 and 1.6 mM, 24 hours
Procedure: (§1) 4. Gelatin Gel Zymography (Shim et al., 2003; Park et al., 2005; Hwang et al., 2006)
(§2) HT 1080 cells with appropriate cell numbers were cultured in 60 mm culturing plates for 12 hours, respectively. After the cells were attached onto the bottom of the plate and formed a monolayer, the medium in the plate was removed. Fresh serum free mediums with different concentrations of a test sample were added to the plates, respectively, and 100 nM PMA was added to each plate to induce the cells to express great quantities of matrix metalloproteinase-2 and matrix metalloproteinase-9, and the plates were placed in a temperature of 37° C. for 24 hours. After centrifugation, each cultured supernatant were saved and mixed with SDS-sample buffer under the same protein contents which were then injected into a 10% SDS-polyacrylamide gel (containing 1 mg/ml gelatin) and then electrophoresed. After the electrophoresis was completed, the gel was taken out and washed with 20 mM Tris-HCl containing 25% isopropanol three times; 10 minutes per time. Then the gel was equilibrated with 20 mM Tris-HCl for 30 minutes, and finally an incubate buffer (5 mM CaCl2 and 1 mM ZnCl2) was added to the gel and reacted with the gel overnight. Then the gel was stained with coomassie blue, and positions having matrix metalloproteinase activity of the gel presented a white color.

[2] = test system: matrix metalloproteinase-2; assay: Gelatin gel zymography of PMA-induced HT 1080 cells, MMP-2 activity; assay type: cell-based, Human; details: HT 1080 cells, 0.4, 0.8, 1.2 and 1.6 mM, 24 hours
Procedure: as §1, §2

[3] = test system: human umbilical vein endothelial cells; assay: Tube formation assay (angiogenesis); assay type: cell-based
Procedure: 13. Tube Formation Assay (Malinda et al., 1999)
1μ-Slide Angiogenesis ibiTreat chambers were coated with 10 μl Matrigel™ Mixtrix and placed in an incubator at 37° C. for 1 hour. 40 μl of a 3×10^5 cells/ml cell suspension was added to each chamber and left still for 20 minutes to let the cells attach to the chamber. After that, the medium in each chamber was removed. Fresh mediums with different concentrations of a test drug were added to the chambers, respectively and placed in an incubator at 37° C. After 18 hours, the angiogenesis appearance in each chamber was observed and photographed for recording.

[4] = test system: human umbilical vein endothelial cells; assay: Cell viability assay of human umbilical vein endothelial cells; assay type: cell-based; details: 24 hours
Procedure: A medium in a culturing plate containing cells grown covering the whole bottom of the culturing plate, was removed. The cells were washed with 10 ml of PBS, and then suspended and mixed well with 10 ml of medium (a part of the cells need to be suspended with Trypsin-EDTA buffer). The numbers of the cells were calculated by a hemocytometer, and the cells were diluted to an appropriate cell concentration and added into the wells of a 24 well culturing plate by an amount of 500 μl/well. The 24 well culturing plates were placed in an incubator at 37° C. in a humidified atmosphere containing 5% CO2. After the cells were attached onto the bottom of the wells, the medium in each well was removed, and fresh mediums with different concentrations of a test drug were added into wells, respectively (if the cells were suspension cells, the fresh medium may be added into the wells, directly). Then, the 24 well culturing plates were placed in an incubator at 37° C. in a humidified atmosphere containing 5% CO2 for 24 hours. After that, an upper medium in each well was removed. The cells were washed with a PBS buffer twice, and then an MTT solution which was prepared with a medium was added to each well. After the 24 well culturing plates were placed in an incubator at 37° C. for reacting 4-6 hours, an upper medium in each well was removed, and 100 μl of DMSO was added to each well to solubilize the formazan precipitates. After that, an ELISA reader was used to determine the absorbance for each well at 600 nm.
After human umbilical vein endothelial cells were treated with the different concentrations of L-Aspartic acid β-hydroxamate (CH) and different concentrations of L-Glutamic acid γ-hydroxamate (DH) for 24 hours, respectively, the cell viability assays were performed to the treated human umbilical vein endothelial cells and the angiogenesis conditions of the human umbilical vein endothelial cells were recorded. The results of the cell viability assays are shown as FIGS. 13 (A) and 14 (A). Photographs for the human umbilical vein endothelial cells treated with L-Aspartic acid β-hydroxamate (CH) and human umbilical vein endothelial cells treated with L-Glutamic acid γ-hydroxamate (DH) are shown as FIGS. 13 (B) and 14 (B), respectively.

SMILES | matrix metalloproteinase-9 inhibiting activity [1] | matrix metalloproteinase-2 inhibiting activity [2] | angiogenesis inhibition at 0.25 mM ([3]; 0.25 mM) | inhibition rate to angiogenesis ([3]; about 0.1-1.5 mM, stated as embodiment) | angiogenesis compared with the control group ([3]; increasing concentrations) | cytotoxicity to human umbilical vein endothelial cells ([4]; 0.25 mM) | viability of human umbilical vein endothelial cells ([4]; 0.75 mM)
N[C@@H](CCC(=O)O)C(=O)O [D, L-Glutamic acid, reference compound] | no inhibiting effect | no inhibiting effect |  |  |  |  | 
NC(CC(=O)NO)C(=O)O [CH, L-Aspartic acid β-hydroxamate] |  |  | already had an effect of inhibiting angiogenesis | 10-90% | significantly inhibited | no cytotoxicity | slight decreases
